Several values for one entry are separate records, joined by “and”; a condition that tells them apart may be missing. Equal entries are not always repeated.

In data set [1] the test system is VCaP cells. Nature of the data set: Alamar blue (resazurin) cell viability, VCaP. Format: cell-based, human. Particulars: for Cytotoxic effect on VCaP cells (in words): 10 µM, 24 and 48 h. The procedure: (§1) LNCaP and RWPE-1 cells were plated in 96-well plates at 10 000 cells per well and incubated overnight at 37 °C with 5% CO2. VCaP cells were plated at 12 000 cells per well under the same conditions. After 24 h, the medium was replaced with fresh medium containing the compounds or abiraterone at a final concentration of 10 µM. Cells were incubated for an additional 24 and 48 h. Cell viability was measured using the Alamar Blue assay. Post-incubation, 0.05 mg/mL Alamar Blue solution in phosphate-buffered saline (PBS) was added to each well. The plates were incubated in the dark at 37 °C for 4 h, and fluorescence was measured at an excitation wavelength of 550 nm and an emission wavelength of 590 nm. Cell viability was calculated relative to control sample treated with DMSO. All experiments were conducted in triplicate.
A general note: Alamar Blue is a resazurin reagent that responds to reducing activity.

Data set [2] deals with T1, CYP17A1 (Homo sapiens, UniProt P05093).
T1 construct: immortalised human adrenal cells expressing CYP17A1 and other steroidogenic enzymes; endogenous in cells; host or cells: NCI-H295R (human adrenal cells)
T1 sequence (P05093 1-508): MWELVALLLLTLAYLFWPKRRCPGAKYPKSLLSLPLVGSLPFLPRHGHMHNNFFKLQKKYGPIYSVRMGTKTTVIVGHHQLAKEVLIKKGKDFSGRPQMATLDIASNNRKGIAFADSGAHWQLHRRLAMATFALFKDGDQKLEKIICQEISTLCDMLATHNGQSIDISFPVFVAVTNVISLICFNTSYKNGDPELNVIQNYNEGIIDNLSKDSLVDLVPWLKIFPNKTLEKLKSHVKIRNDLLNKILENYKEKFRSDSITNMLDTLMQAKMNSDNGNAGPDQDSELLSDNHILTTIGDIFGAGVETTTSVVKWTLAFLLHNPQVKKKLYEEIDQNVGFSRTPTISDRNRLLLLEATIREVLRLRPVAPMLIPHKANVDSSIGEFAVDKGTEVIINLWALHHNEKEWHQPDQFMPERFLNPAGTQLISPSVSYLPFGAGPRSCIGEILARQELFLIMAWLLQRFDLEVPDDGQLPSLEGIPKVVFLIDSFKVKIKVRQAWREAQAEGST
Nature of the data set: CYP17A1 activity calculated as ratios of steroid products to substrates (LC-MS). In kind it is cell-based. Particulars: normalised to DMSO-treated cells (100%), NCI-H295R. How it is done:
(§2) Steroid quantification was performed using Liquid Chromatography–Mass Spectrometry (LC-MS), following established protocols to study effect of compounds on adrenal steroidogenesis. Human adrenal NCI-H295R cells were seeded in 12-well plates at 500 000 cells per well and treated with fresh growth medium containing the test compounds for 4 h. Subsequently, 1 µM pregnenolone was added and incubated for an additional 4 h. Steroids were extracted from 500 µL aliquots of cell media, separated, and quantified according to the referenced methodology.
To provide deeper insights into CYP17A1 inhibition, the enzyme activity was calculated using ratios of steroid products to substrates, focusing on dual activities of CYP17A1 (Figure 4(B)).

In data set [3] the test system is LNCaP cells. Nature of the data set: Alamar blue (resazurin) cell viability, LNCaP. Particulars: 10 µM, 24 and 48 h. Format: cell-based, human. How it is done:
as §1

Data set [4] is described as follows: Alamar blue (resazurin) cell viability, RWPE-1. Format: cell-based. Particulars: human, RWPE-1 cells, of the control. How it is done:
as §1

In data set [5] the test system is DU-145 cells. Nature of the data set: Scratch (wound healing) assay. Format: cell-based, human. Particulars: DU-145, 10 µM; for Wound area, Mean (area remaining open): 24 h, DMSO 170.5; for Effect on cell migration (in words): after 24 h. How it is done:
Human prostate cancer DU-145 cells show strong cell proliferation and therefore, are an established model for assay of antiproliferative effects of test compounds. DU-145 cells were plated in 24-well plates at 50 000 cells per well and grown until they reached 85% confluence. To inhibit cell proliferation, cells were treated with 5 µg/mL mitomycin for 2 h. A wound was created using a 10 µL pipette tip. The cells were then exposed to drugs at a concentration of 10 µM, while control wells received DMSO. Wound closure was observed and photographed using an optical microscope after 24 h. Images were analysed using ImageJ software (version 1.54j).

Data set [6] deals with T1, CYP17A1. Nature of the data set: CYP17A1 17,20-lyase activity assay in NCI-H295R cells (tritiated water release). Format: cell-based. Particulars: 4 h, DMSO = 100, read-out: CYP17A1 Lyase activity, Mean (percentage of activity remaining relative to the control). The procedure: (§3) Human adrenal NCI-H295R cells are an established model for assay of CYP17A1 activities. The NCI-H295R cells were seeded in 12-well plates at 500 000 cells per well and incubated overnight. On the following day, 10 µM of test compounds were added to the wells with fresh medium and incubated for 4 h. Abiraterone was used as a reference, and DMSO was included as a control. For assessing CYP17A1 hydroxylase activity, cells were treated with [^14C]-Progesterone at 10 000 cpm/1 µM per well. Trilostane was added prior to the test compounds and substrate to inhibit 3β-hydroxysteroid dehydrogenase activity so that a clean assay of only CYP17A1 activity could be performed[20]^,[27]^,[28]. Radiolabeled steroids were extracted from the media using a mixture of ethyl acetate and isooctane (1:1 v/v) and separated by Thin Layer Chromatography (TLC) on silica gel-coated aluminium plates (Supelco® Analytics, Sigma-Aldrich Chemie GmbH, Taufkirchen, Germany). TLC spots were visualised on a phosphor screen and detected by autoradiography using a Typhoon™ FLA-7000 PhosphorImager (GE Healthcare, Uppsala, Sweden). Radioactivity was quantified with ImageQuant™ TL analysis software (GE Healthcare Europe GmbH, Freiburg, Germany), and enzyme activity was expressed as the percentage of radioactivity incorporated into the product relative to the total radioactivity. For CYP17A1 lyase activity, cells were exposed to 50 000 cpm/1 µM [21-^3H]-17α-hydroxypregnenolone per well under similar conditions. The tritiated water release assay was used to measure the conversion of 17OH-Pregnenolone to DHEA. Steroids in the media were precipitated using a 5% activated charcoal/0.5% dextran solution. Enzyme activity was evaluated based on the water-soluble tritiated by-product formed in equimolar amounts with DHEA, with radioactivity in the aqueous phase quantified by liquid scintillation counting (MicroBeta2® Plate Counter, PerkinElmer Inc., Waltham, MA, USA). Percent inhibition was calculated relative to control samples.

Data set [7] deals with T1, CYP17A1. Nature of the data set: CYP17A1 17α-hydroxylase activity assay in NCI-H295R cells ([14C]-progesterone, TLC). In kind it is cell-based. Particulars: 4 h, DMSO = 100, read-out: CYP17A1 Hydroxylase activity, Mean (percentage of activity remaining relative to the control). How it is done:
as §3

The subject of data set [8] is adrenal steroidogenesis in NCI-H295R cells. Nature of the data set: Steroid profiling by LC-MS in NCI-H295R cells. In kind it is cell-based, human. To be noted: for Androsterone, Mean / Testosterone, Mean / Progesterone, Mean / Androstendione, Mean / 17a-Hydroxyprogesterone, Mean / DHEA, Mean / 11-Deoxycortisol, Mean / 11-Deoxycorticosterone, Mean / Pregnenolone, Mean / Cortisone, Mean / DHEA-S, Mean / Dihydrotestosterone, Mean: compounds at 10 µM; for Androsterone, Mean / Testosterone, Mean / Progesterone, Mean / Androstendione, Mean / 17a-Hydroxyprogesterone, Mean / DHEA, Mean / 11-Deoxycortisol, Mean / 11-Deoxycorticosterone, Mean / Pregnenolone, Mean: 1 µM pregnenolone; for Androsterone, Mean / Cortisone, Mean / DHEA-S, Mean / Dihydrotestosterone, Mean: DMSO 0; for Testosterone, Mean: DMSO 0.4785; for Progesterone, Mean: DMSO 4.814; for Androstendione, Mean: DMSO 7.577; for 17a-Hydroxyprogesterone, Mean: DMSO 9.967; for DHEA, Mean: DMSO 15.119; for 11-Deoxycortisol, Mean: DMSO 26.594; for 11-Deoxycorticosterone, Mean: DMSO 28.1555; for Pregnenolone, Mean: DMSO 2043.56; for Cortisone, Mean / DHEA-S, Mean / Dihydrotestosterone, Mean: not detected within the experimental timeframe. How it is done:
as §2

The target in data set [9] is T1, CYP17A1. In words: CYP17A1 17,20-lyase activity assay in NCI-H295R cells (tritiated water release). In kind it is cell-based. Particulars: dose-response, read-out: IC50, inhibition of 17,20-lyase activity.

As for `C[C@]12CC[C@H](O)CC1=CC[C@@H]1[C@@H]2CC[C@]2(C)C(c3cccnc3)=CC[C@@H]12` [ABT, abiraterone, reference compound], in data set [1], the “Cytotoxic effect on VCaP cells (in words)” value is recorded as “notable reduction in cell viability”. Also, in data set [2], the “17α-Hydroxylase activity (ratios of steroid products to substrates)” value was 15.2%; the “Combined 17α-hydroxylase and 17,20-lyase activity (ratios of steroid products to substrates)” value is listed as roughly 16.3%. Moreover, in data set [3], the “Cytotoxic effect on LNCaP cells (in words)” value is listed as “notable reduction in cell viability”. Also, the viability (commonly a read-out of living cells in per cent, often relative to untreated cells) at 24 h, 10 µM in data set [4] (24 h) was found to be 84%. Further, the viability at 48 h, 10 µM in data set [4] turned out to be 66%. Besides, the “Wound area, Mean (area remaining open)” value in data set [5] is recorded as 935 Pixels^2. In [6], the remaining activity (commonly the signal under treatment as a percentage of the control signal) at 10 µM was found to be 24%. In data set [7], the remaining activity at 10 µM was 14%. For the same molecule, in [8], the “Androsterone, Mean” value was determined as 0 nmol/L; the “Testosterone, Mean” value came to 0.5005 nmol/L; the “Progesterone, Mean” value amounted to 3.809 nmol/L; the “Androstendione, Mean” value worked out at 1.5465 nmol/L. Besides, in data set [8], the “17a-Hydroxyprogesterone, Mean” value is recorded as 1.202 nmol/L; the “DHEA, Mean” value is 2.775 nmol/L; the “11-Deoxycortisol, Mean” value was 3.585 nmol/L; the “11-Deoxycorticosterone, Mean” value worked out at 2.6135 nmol/L. In addition, in data set [8], the “Pregnenolone, Mean” value was 2279.668 nmol/L; the “Cortisone, Mean” value came out at 0 nmol/L; the “DHEA-S, Mean” value came out at 0 nmol/L; the “Dihydrotestosterone, Mean” value worked out at 0 nmol/L.
In data set [1] (Homo sapiens, VCaP, 24 h), `N#Cc1c(-c2ccncc2)cc(-c2ccc3[nH]ccc3c2)nc1N` [Compound 5, 2-Amino-6-(1H-indol-5-yl)-[4,4′-bipyridine]-3-carbonitrile] registered a viability at 10 µM of less than 50%. In addition, the “17α-Hydroxylase activity (ratios of steroid products to substrates)” value in data set [2] was 1.7%. Further, the “Cytotoxic effect on LNCaP cells (in words)” value in [3] was “marked reduction in viability”. For the same molecule, in [5], the “Wound area, Mean (area remaining open)” value was 1916 Pixels^2 and the “Effect on cell migration (in words)” value is “less pronounced effect comparable to that exerted by abiraterone”. In [6], the remaining activity at 10 µM was found to be 39.7%. The remaining activity at 10 µM in [7] was 20%. Also, in data set [9], the IC50 – broadly, the midpoint of a concentration-inhibition curve – was 25 nM. In data set [8], the “Androsterone, Mean” value is listed as 0.009 nmol/L; the “Testosterone, Mean” value came out at 0.5215 nmol/L; the “Progesterone, Mean” value is listed as 39.9815 nmol/L; the “Androstendione, Mean” value is recorded as 1.4095 nmol/L. Besides, in data set [8], the “17a-Hydroxyprogesterone, Mean” value worked out at 1.3865 nmol/L; the “DHEA, Mean” value was found to be 0.748 nmol/L; the “11-Deoxycortisol, Mean” value turned out to be 4.0415 nmol/L; the “11-Deoxycorticosterone, Mean” value came out at 5.503 nmol/L. In data set [8], the “Pregnenolone, Mean” value was 2578.994 nmol/L; the “Cortisone, Mean” value came out at 0 nmol/L; the “DHEA-S, Mean” value is reported as 0 nmol/L; the “Dihydrotestosterone, Mean” value was 0 nmol/L.
For `N#Cc1c(-c2ccncc2)cc(-c2ccc3[nH]ccc3c2)c(C#N)c1N` [Compound 11, 2-Amino-4-(1H-indol-5-yl)-6-(pyridin-4-yl)isophthalonitrile], the “Cytotoxic effect on VCaP cells (in words)” value in [1] is given as “did not exhibit high cytotoxic effects”. Further, in [2], the “17α-Hydroxylase activity (ratios of steroid products to substrates)” value is 1%. Also, the “Cytotoxic effect on LNCaP cells (in words)” value in data set [3] is on record as “did not exhibit high cytotoxic effects”. In data set [5], the “Wound area, Mean (area remaining open)” value stood at 8703 Pixels^2 and the “Effect on cell migration (in words)” value is recorded as “significant inhibition of cell migration”. In [6], the remaining activity at 10 µM worked out at 49.2%. Moreover, the remaining activity at 10 µM in data set [7] is 10%. Further, in [9], the IC50 was determined as 4 nM. In data set [8], the “Androsterone, Mean” value turned out to be 1.176 nmol/L; the “Testosterone, Mean” value is recorded as 0.4775 nmol/L; the “Progesterone, Mean” value is given as 67.3265 nmol/L; the “Androstendione, Mean” value was 1.3725 nmol/L. In addition, in data set [8], the “17a-Hydroxyprogesterone, Mean” value stood at 1.3575 nmol/L; the “DHEA, Mean” value was 1.36 nmol/L and 1.3585 nmol/L; the “11-Deoxycortisol, Mean” value was determined as 3.942 nmol/L; the “11-Deoxycorticosterone, Mean” value stood at 3.8565 nmol/L. In [8], the “Pregnenolone, Mean” value is on record as 2465.505 nmol/L; the “Cortisone, Mean” value turned out to be 0 nmol/L; the “DHEA-S, Mean” value was found to be 0 nmol/L; the “Dihydrotestosterone, Mean” value came to 0 nmol/L. Moreover, the “Reduction of DHEA level” value in data set [8] (vs DMSO control) amounted to 11 fold.
In data set [4], `c1cncc(-c2cccc(-c3ccc4[nH]ccc4c3)c2)c1` [Compound 12, 5-(3-(Pyridin-3-yl)phenyl)-1H-indole] registered a viability at 48 h, 10 µM of 85%. Further, the remaining activity at 10 µM in data set [6] was found to be 48.7%; in [7], 46%.

The values above are taken from PMC11834790, “Pyridine indole hybrids as novel potent CYP17A1 inhibitors” (Journal of Enzyme Inhibition and Medicinal Chemistry, 2025).
